Columns and labels:
HUVECs (ECs) = experiment: EC (HUVEC) migration assay with synthetic peptides; assay type: cell-based, human; details: 5, 10, 20 and 50 ng/ml, 5 hours
Protocol: Migration assays in the presence of synthetic peptides—EC migration was evaluated as described in Example 2, hereinabove. Following typsinization, ECs (25×10^3) were incubated in migration chambers. For the chemoattactant migration assay, synthetic peptides were added to the feeder tray at 5, 10, 20, and 50 ng/ml and incubated with the cells for 5 or 15 hours. For migration activation assays, synthetic peptides at 0.1, 1, and 10 ng/ml were incubated with the cells in the migration chamber for 5 or 15 hours.
(§1) Synthetic peptides induced proliferation or migration after and under hypoxia treatment—Cell proliferation or migration assays were performed as described in Example 3, hereinabove, except that cells were divided to 3 groups: control cells, cells after exposure to hypoxia conditions or cells proliferating under hypoxia conditions. For cell proliferation assays, ECs were incubated with QF, LT and SP and MVECs were incubated with LT, SP, and YR. For cell migration assays, ECs were incubated with EBM-2 and MVECs were incubated with EBM-MV media.

ECs (HUVECs) = experiment: EC migration assay with peptide-presenting phages (Chemicon QCM 96-well Migration Assay); assay type: cell-based, human; details: 5 hours; for Migration of activated ECs (phages with ECs in migration chamber): 10^5 or 10^6 phages per well
Protocol: EC migration assay—EC migration was evaluated by the Chemicon QCM 96-well Migration Assay (Chemicon International, Temecula, Calif., USA) according to the manufacturer's instructions. Briefly, the kit's migration chamber comprises an insert membrane with 8 μm pores and a feeder tray containing the peptides as chemoattractants. Cell migration was evaluated by placing the cells in the migration chamber and following their migration to the bottom of the membrane.
For the migration/chemoattractant assay, ECs from passage 3 were incubated for 24 hours on gelatin-coated plates in the presence of the M199 SFM. Following trypsinization, 2×10^4 ECs were incubated for 5 hours in each of the 96 wells of the migration chamber. The peptide-presenting phages (10^5 or 10^6) were added to the feeder tray to chemoattractant the cells without being in physical contact with the cells. Cells which reached the bottom of the membrane (i.e., migratory cells) were dissociated from the membrane following the incubation with a cell detachment buffer. The migratory cells were subsequently lysed and detected by the molecular probe CyQuant GR dye which exerts green fluorescent enhancement when bound to cellular nucleic acid.
For activation migration assays, 10^5 or 10^6 peptide-presenting phages were incubated (for 5 hours) with ECs in the migration chamber. NO phages (unmodified M13 phages) served as negative control in both migration assays. Results were determined by a fluorescent ELISA reader at 480/520 nm (Fluostar BMG Lab Teck) and are presented in net values from which the control values were subtracted.

VEGF-C = experiment: Real time PCR gene expression in MVECs, VEGF-C; assay type: cell-based; parameters: key: increased (+); non-increased (−); details: 1 ng/ml peptide
Protocol: Real Time PCR—MVECs from passage 3 were incubated for 24 hours in EBM-MV supplement-free medium (starving media). Following starvation, 1 ng/ml of synthetic peptides LT, QF, SP, TR, YR, and VL and 10 ng/ml of VEGF were added to the plates. Following 1.5 or 6 hours of incubation, total RNA was extracted using TRIsol reagent (Invitrogen Life Technologies, Carlsbad Calif., USA) and 0.8 μg of the extracted RNA was used as a template for reverse transcription (Invitrogen) using random primers (SuperScript III First-Strand Synthesis System for RT-PCR (hvitrogen, Carlsbad Calif., USA) according to the manufacturer's instructions. Resulting cDNAs were subjected to real time PCR amplification using the ABI prism 7000 Sequence Detection System (Applied Biosystems, Foster City, Calif., USA). Oligonucleotide primers were designed using Primer Express Software (Applied Biosystems, Foster City, Calif., USA) according the translated region of VEGF-A (Accession No:NM_003376), VEGF-C (Accession No:NM_005429), KDR (Accession No:NM_002253), FLT-1 (Accession No:NM_002019), HIF-α (Accession No:HSU22431), and GAPDH (Accession No:NM_002046) and are listed in Table 6, hereinbelow. Briefly, a reaction mixture of 20 μl consisting of DDW, oligonucleotide primers (500 nM), cDNA (3 μl), and SYBR Green PCR master kit (Applied Biosystems, Foster City, Calif., USA) was subjected to an amplification program of 15 seconds at 95° C., and 60 seconds at 60° C. for 40 cycles. Results were analyzed using the Sequence Detector Software Version 1 (Applied Biosystenis).
Peptides effect on gene expression in MVECs—The effect of the synthetic peptides on the expression in MVECs of selected genes (VEGF-A, VEGF-C, KDR, FLT-1 and HIF-1α) related to the VEGF pathway (a major pathway that participated in angiogenic process) was tested. Synthetic peptides were added at 1 ng/ml for 1.5 and 6 hours. After incubation with peptide, RNA was extracted from MVECs and Real Time PCR was performed. Gene expression was calculated as peptide/control (cells without peptide treatment) ratio.

MVECs = experiment: Tube formation assay, MVECs; assay type: cell-based; details: for MVEC tube formation compared to untreated cells: normoxic conditions, 10 ng/ml, matrigel
Protocol: Tube formation assay—ECs from passage 3 or MVECs from passage 4 were harvested with trypsin and incubated for 24 hours in SFM. Twenty-four—well plates were pre-coated with 250 μl of Cultrex Basement Membrane Extract with reduced growth factors (R&D Systems, Minneapolis, Minn., USA). Five hundred microliters of medium containing 10^6 cells were transferred to the coated wells. Synthetic peptides, FGF, YR, QF, or VL were added to ECs, and VEGF, YR, QF, or VL were added to MVECs at 10 ng/ml. Plates were incubated for 24 hours at 37° C. in the presence of 5% CO2. HUVECs and MVECs were photographed under a light microscope at 20 hours and 8 hours, respectively.
Tube formation assay after and under hypoxia treatment—Tube formation assay was performed as described in Example 3, hereinabove, except that the cells were divided to 3 groups: control cells, cells after exposure to hypoxia conditions, and cells on matrigel basement that form tubes under hypoxia treatment.

[1] = test system: dermal microvascular endothelial cells (MVECs); experiment: Proliferation of dermal microvascular endothelial cells (MVECs) in the presence of synthetic peptides; assay type: cell-based; details: for Increase of MVECs proliferation response / [^3H]-Thymidine uptake in MVECs: normoxia; for [^3H]-Thymidine uptake in MVECs: 0.1-100 ng/ml, 24 hours
Protocol: Proliferation of dermal microvascular endothelial cells (MVECs) in the presence of synthetic peptides—MVECs were incubated with synthetic peptides (LT, SP, and YR) as described above for HUVECs (ECs), except that the MVECs were seeded in EBM-MV medium containing supplements (Cambrex BioWhittaker Cell Biology Products) and MVECs from passage 4 (rather than 3) were used for proliferation experiments.
as §1

TLPWLEESYWRP (Phage displayed peptide) [TR]
EC migration, peptides as chemoattractants in feeder tray (HUVECs (ECs)): smaller effect of induced migration
EC migration, phages as chemoattractants on feeder tray (ECs (HUVECs); 10^6 phages per well): induce migration as chemoattractants
VEGF-C Expression after 1.5 hours (VEGF-C): +
VEGF-C Expression after 6 hours (VEGF-C): +

VPWMEPAYQRFL (Phage displayed peptide) [VL]
MVEC tube formation compared to untreated cells (MVECs): significant increase in tube formation
EC migration, peptides as chemoattractants in feeder tray (HUVECs (ECs)): smaller effect of induced migration
VEGF-C Expression after 1.5 hours (VEGF-C): +
VEGF-C Expression after 6 hours (VEGF-C): +

YPHIDSLGHWRR (Phage displayed peptide) [YR]
MVEC tube formation compared to untreated cells (MVECs): significant increase in tube formation
EC migration, phages as chemoattractants on feeder tray (ECs (HUVECs); 10^5 phages per well): induce migration as chemoattractants
Increase of MVECs proliferation response ([1]; 1 ng/ml): 1.7 fold
[^3H]-Thymidine uptake in MVECs [1]: significant increase

QPWLEQAYYSTF (Phage displayed peptide) [QF]
MVEC tube formation compared to untreated cells (MVECs): significant increase in tube formation
Migration of activated ECs (phages with ECs in migration chamber) (ECs (HUVECs)): induced migration
EC migration, phages as chemoattractants on feeder tray (ECs (HUVECs); 10^6 phages per well): induce migration as chemoattractants
[^3H]-Thymidine uptake / proliferation of MVECs after and under hypoxia [1]: did not show increase proliferation
VEGF-C Expression after 1.5 hours (VEGF-C): +
VEGF-C Expression after 6 hours (VEGF-C): +

SAHGTSTGVPWP (Phage displayed peptide)
MVEC tube formation compared to untreated cells (MVECs): did not induce tube formation
MVEC tube formation under hypoxia (MVECs; under hypoxia conditions, 18 hours): effective only in tube formation under hypoxia conditions
EC migration, peptides as chemoattractants in feeder tray (HUVECs (ECs)): dose-dependent induced migration
EC migration, phages as chemoattractants on feeder tray (ECs (HUVECs); 10^6 phages per well): induce migration as chemoattractants
[^3H]-Thymidine uptake / proliferation of MVECs after and under hypoxia [1]: significant dose-dependent increase
Increase of MVECs proliferation after hypoxia ([1]; 10 ng/ml): 1.5 fold
Increase of MVECs proliferation response ([1]; 1 ng/ml): 1.4 fold
[^3H]-Thymidine uptake in MVECs [1]: significant increase
Increase of MVECs proliferation under hypoxia ([1]; 1 ng/ml): 1.9 fold
VEGF-C Expression after 1.5 hours (VEGF-C): +
VEGF-C Expression after 6 hours (VEGF-C): +

LLADTTHHRPWT (Phage displayed peptide) [LT]
MVEC tube formation compared to untreated cells (MVECs): did not induce tube formation
EC migration, peptides as chemoattractants in feeder tray (HUVECs (ECs)): dose-dependent induced migration
Migration of activated ECs (phages with ECs in migration chamber) (ECs (HUVECs)): induced migration
EC migration, phages as chemoattractants on feeder tray (ECs (HUVECs); 10^6 phages per well): induce migration as chemoattractants
[^3H]-Thymidine uptake / proliferation of MVECs after and under hypoxia [1]: significant dose-dependent increase
Increase of MVECs proliferation after hypoxia ([1]; 1 ng/ml): 1.7 fold
Increase of MVECs proliferation response ([1]; 1 ng/ml): 1.8 fold
[^3H]-Thymidine uptake in MVECs [1]: significant increase
Increase of MVECs proliferation under hypoxia ([1]; 10 ng/ml): 1.7 fold
VEGF-C Expression after 1.5 hours (VEGF-C): +
VEGF-C Expression after 6 hours (VEGF-C): +

Reference: patent publication US7473682B2, “Angiogenic peptides and uses thereof” (Ramot at Tel Aviv University Ltd., priority 2003, dated 2009)
